Assay results taken from patent US20100330029A1, “Cancer Treatments with Radiation and Immunocytokines” (Merck Patent GmbH, priority 2008, published 2010).

System: Lewis lung carcinoma (LLC)
Assay: tumor growth assay, Lewis lung carcinoma model
Type: in vivo, mice
Conditions: LLC-3, single-arm groups: cisplatin plus 3.6 Gy/d without EMD521873, or EMD521873 alone
Method: LL/2 (LLC) cells, a murine Lewis lung carcinoma cell line, were maintained in DMEM, supplemented with 10% heat-inactivated fetal bovine serum, L-glutamine, penicillin/streptomycin (Life Technologies, Inc.) at 37° C. and 7% CO2. LLC cells were implanted in female C57BL/6 mice.
For the tumor growth assay, cells growing exponentially in culture were injected as a single cell suspension in 100 μl of PBS intramuscularly into the upper legs of the mice. In experiments using a dual tumor model, cells were also implanted in the flanks of the mice. […] In Experiment LLC-7, tumors were implanted in the flank until established. Mice were treated on days 0 to 9, then, on day 12, tumors were excised using survival surgery. Thereafter, animal survival was monitored. In Experiment LLC-14, tumors were implanted subcutaneously in the flank until established. Mice were treated on days 0 to 6 and day 17, and tumor size was measured twice weekly for the duration of the study.
Tumors were measured with calipers in three dimensions for the duration of the experiment. Tumor volumes were calculated using the equation:
Volume=4/3π(L/2×W/2×H/2) • where L=length, W=width and H=height of the tumor
For local irradiation, mice were anesthetized by intraperitoneal injection of a solution of 2% tribromoethanol/3% xylazine. The amount injected was 0.02 ml/gram of the recipient's weight. Mice were restrained so that only their tumor-bearing leg was exposed to radiation, while the reminder of the mouse was shielded. Tumors were irradiated with ^137Cs gamma radiation at a dose rate of 1 Gy/min using a Gammacell® 40 Exactor (Nordion, Ottawa, ON).
Data from the subcutaneous tumor growth assay are presented in graphic form depicting average and standard deviations (sd) of tumor volumes or weights during and after dosing. Animal weight changes were determined by subtracting the animal weight at each time point from the initial body weight, on day 0, then dividing by the initial body weight and multiplying by 100. Therefore a value of 0 indicates no weight change.
Student's 2-tailed t test or Mann-Whitney Rank Sum test, as appropriate, was performed on the individual tumor volumes or animal weights, to determine significant differences between treatment groups.

SMILES: N.N.[Cl][Pt][Cl] [cisplatin, cis-diammineplatinum (II) dichloride, reference compound]
- T/C (day 19): 0.32
- complete responses: 0/6
